From US10144714B2, “Methods of making protein deacetylase inhibitors” (Acetylon Pharmaceuticals, Inc., priority 2015, dated 2018)

Legend:
[1] = Dynamic vapor sorption (DVS) analysis; format: physicochemical; conditions: relative humidity between 0-95 percent, Form I/Pattern A
Description: Dynamic Vapor Soprtion (DVS) analysis was performed using an Aquadyne DVS-2 gravimetric water sorption analyzer. The relative humidity was adjusted between 2-95% and the weight of the sample was continuously monitored and recorded with respect to the relative humidity and time.

[2] = Thermal gravimetric analysis (TGA); format: physicochemical; conditions: from 35 to 150° C.; Form I
Description: Thermal Gravimetric Analysis (TGA) data were collected using a TA Instruments TGA Q500. Approximately, 5-10 mg samples were placed in an open, pre-tared aluminum sample pan and scanned from 25 to 300° C. at a rate of 10° C./min using a nitrogen purge at 60 mL/min.

- change in the crystalline form ([1]; after DVS): no change in the crystalline form
- moisture uptake [1]: less than 0.2%
- weight loss [2]: less than 0.1%
Compound: O=C(CCCCCCNC(=O)c1cnc(N(c2ccccc2)c2ccccc2Cl)nc1)NO [Compound (I), 2-((2-chlorophenyl)(phenyl)amino)-N-(7-(hydroxyamino)-7-oxoheptyl)pyrimidine-5-carboxamide]
